Assay results reported in patent publication US20240075099A1, “COMPOSITIONS, ASSAYS, AND METHODS FOR TARGETING HDM2 AND HDMX TO REVERSE THE INHIBITION OF p53 IN [sequence] CANCERS” (Dana-Farber Cancer Institute, Inc., priority 2016, published 2024).
“Also recorded” adds a separate entry of the source.

Tests used:
[1] = tested on: MV4; 11 cells; assay: Viability of pediatric AML cell line; assay type: cell-based; details: 11, FIG. 6A
[2] = tested on: p53 protein level in RS4; 11 cells; assay: p53 protein level by flow cytometry; assay type: cell-based; details: 3 hours, 10% serum, FIG. 12
Experimental: RS4; 11 cells were plated in 6-well plates (10^6/well) in RMPI containing 10% FBS and treated for 3 hours with ALRN-7041, ALRN-7041 F19A, or vehicle control (0.2% DMSO) in the presence of 10% serum. Cells were then harvested by centrifugation, washed in ice cold PBS, and resuspended in 100 viL PBS containing 1 μL Fixable Viability Stain 450 (BD Biosciences, Franklin Lakes. NJ, USA) and incubated in the dark at room temperature for 15 minutes. The cells were stained for p53 immunofluorescence with Cytofix/Cytoperm and the PE Mouse Anti-p53 Set (BD Biosciences) according to the manufacturer's instructions, using 10 viL PE-G59-12 anti-p53 mouse IgG1 or isotype control antibody per 10 6 cells. Stained and fixed cells were analyzed on an LSR II flow cytometer (BD Biosciences). Cell populations were gated on forward and side scatter to select for single cells and on fluorescence at 450 nm to select for live cells, and PE fluorescence in the gated population was measured at 578 nm.

[3] = tested on: high grade glioma (e.g. GBM) neurospheres bearing mutant p53; assay: CellTiter-Glo viability, neurospheres; assay type: cell-based; details: 72 h, FIG. 13
Experimental: (§4) Cells were plated in 96-well opaque plates (5000 cells/well) in Neurobasal-A/DMEM/F-12 mixture media containing HEPES, MEM sodium pyruvate, MEM non-essential amino acids, GlutaMAX, B27 Supplement, H-EGF, H-FGF, H-PDGF-AA, H-PDGF-BB, and heparin. The following day, the cells were treated with the indicated concentrations of drug or vehicle control (0.2% DMSO). […] Cell viability was measured after 72 h by CellTiter-Glo assay (Promega, Madison, WI, USA), performed according to the manufacturer's instructions, and percent viability calculated based on the untreated controls. Error bars are mean±s.e.m for experiments performed in technical triplicate.

[4] = tested on: MV4; 11 cells; assay: Cellular uptake, fluorescence scan of lysates from treated cells; assay type: cell-based; details: full serum, 4 h, FIG. 6B
Experimental: Cellular Penetrability Assays: To measure the cell penetrability of peptides or crosslinked polypeptides, intact cells are incubated with fluoresceinated crosslinked polypeptides (10 μM) for 4 hrs in serum-free media or in media supplemented with human serum at 37° C., washed twice with media and incubated with trypsin (0.25%) for 10 min at 37° C. The cells are washed again and resuspended in PBS. Cellular fluorescence is analyzed, for example, by using either a FACSCalibur flow cytometer or Cellomics' KineticScan® HCS Reader. Alternative methods include, e.g., high content epifluorescence microscopy, confocal imaging, or fluorescence scan of electrophoresed lysates from FITC-peptide treated cells (see, e.g., LaBelle et al. JCI 2012, 122: 2018-31).

[5] = tested on: TC32 Ewing Sarcoma xenograft; assay: Western analysis of xenograft tumor tissue; assay type: in vivo, mice; details: three intravenous doses, 8 hours after last dose, FIG. 17
Experimental: After TC32 Ewing sarcoma tumor engraftment, mice were treated with three intravenous doses of ALRN-7041 or vehicle and sacrificed 8 hours after the last dose. Each lane of the gel represents an individual mouse tumor, subjected to western analysis using anti-MDM2, p53, and p21 antibodies. Anti-tubulin was used as a loading control.

[6] = tested on: DIPG neurospheres bearing wild-type p53
Experimental: as §4

[7] = tested on: TC32 Ewing sarcoma cells; assay: Annexin V/PI staining and FACS analysis; assay type: cell-based; details: 1 μM, 48 hours post-treatment, FIG. 16
Experimental: TC32 Ewing sarcoma cells were treated with vehicle or 1 μM ALRN-7041 and then subjected to Annexin V/PI staining and FACS analysis at 48 hours post-treatment.

[8] = tested on: p53 wild-type TC32 and TC138 Ewing sarcoma cells; assay: Western blot of lysates, p53 pathway; assay type: cell-based; details: FIG. 15
Description: Western blot analysis of electrophoresed lysates from p53 wild-type TC32 and TC138 Ewing sarcoma cells treated with ALRN-7041 at the indicated doses and time points and probed with anti-MDM2, p53, and p21 antibodies.

[9] = tested on: TC32 Ewing Sarcoma xenografts; assay: Xenograft tumor growth; assay type: in vivo, mice; details: 30 mg/kg IV q.o.d. vs vehicle, two-way ANOVA p=0.0036, FIG. 19
Experimental: Treatment of mice bearing TC32 Ewing Sarcoma xenografts with 30 mg/kg ALRN-7041 IV q.o.d. […] Error bars are mean±SD. For each animal, treatment was instituted when tumors achieved a tumor volume of 100 mm^3, as determined by caliper measurement. Statistical ignificance was calculated by two-way ANOVA analysis (p=0.0036).

[10] = tested on: TC32 Ewing Sarcoma xenografts; assay: mRNA quantitation in xenograft tumor tissue; assay type: in vivo, mice; details: normalized to vehicle-treated samples, FIG. 18
Description: ALRN-7041 treatment of mice bearing TC32 Ewing Sarcoma xenografts increases MDM2 and p21 mRNA levels in tumor tissue (FIG. 18). Each bar represents the response of an individual mouse tumor, as assessed by replicates of mRNA quantitation. Values are normalized to vehicle-treated samples. Error bars are mean±SD.

[11] = tested on: Molm-14 leukemia cells; assay: CellTiter-Glo viability, leukemia cells; assay type: cell-based; details: wild-type p53, 10% serum, 48 h, FIG. 11
Experimental: (§1) Importantly, the sensitivity of RS4; 11 and Molm-14 cells is peptide sequence dependent, as the F19A point mutant analog of ALRN-7041, ALRN-7041 F19A, has no effect (FIG. 11). Leukemia cells were treated in 10% serum with a serial dilution of stapled p53 peptides or Nutlin 3a, and then measured by CellTiter-Glo assay.

[12] = tested on: RS4; 11 leukemia cells; assay: CellTiter-Glo viability, leukemia cells; assay type: cell-based; details: wild-type p53, 10% serum, 48 h, FIG. 11
Experimental: as §1

[13] = tested on: Thp-1; assay: CellTiter-Glo viability, leukemia cells; assay type: cell-based; details: mutant p53 (R174 frameshift), 10% serum, 48 h, FIG. 11
Experimental: as §1

[14] = tested on: Nomo-1; assay: CellTiter-Glo viability, leukemia cells; assay type: cell-based; details: mutant p53 (C242 frameshift), 10% serum, 48 h, FIG. 11
Experimental: as §1

[15] = tested on: Ewing sarcoma cells bearing mutant or deleted p53; assay: CellTiter-Glo viability, Ewing sarcoma cell line panel; assay type: cell-based; details: 72 h, FIG. 14
Description: (§2) Error bars are mean±s.e.m. for eight technical replicates.
(§3) A panel of Ewing sarcoma cell lines that bear wild-type p53 (black) vs. mutant or deleted p53 (grey) were exposed to a serial dilution of ALRN-7041 (FIG. 14).

[16] = tested on: Ewing sarcoma cell lines that bear wild-type p53; assay: as above; assay type: cell-based; details: 72 h, FIG. 14
Description: as §2, §3

COc1ccc(C2=N[C@@H](c3ccc(Cl)cc3)[C@@H](c3ccc(Cl)cc3)N2C(=O)N2CCNC(=O)C2)c(OC(C)C)c1 [Nutlin-3a, reference compound]
cell viability [1]: little to no effect; also recorded: resistant

Ac-LTF*EYWAQZ*SAA-NH2 [ALRN-7041]
cell viability [1]: impairs cell viability in both a dose-responsive and peptide sequence-dependent fashion; also recorded: dose-responsively impairs the viability
p53 protein level [2]: dose-responsively upregulates p53 protein level
cell viability [3]: no susceptibility
cellular uptake [4]: readily taken up by cells
MDM2 protein level in tumor tissue [5]: induces
p21 protein level in tumor tissue [5]: induces
p53 protein level in tumor tissue [5]: induces
cytotoxic effect compared to a selective small molecule inhibitor of HDM2 [6]: markedly enhanced cytotoxic effect
cell viability ([6]; 72 h, FIG. 13): succumb to treatment
Annexin V/PI double positivity (apoptosis) [7]: robust Annexin V/PI double positivity
MDM2 protein induction [8]: transient induction
p21 protein induction [8]: robust induction
p53 protein induction [8]: robust induction
tumor growth [9]: statistically significant suppression of tumor growth
MDM2 mRNA level in tumor tissue [10]: increases
p21 mRNA level in tumor tissue [10]: increases
cell viability [11]: succumb to ALRN-7041 in dose-responsive fashion
cell viability [12]: succumb to ALRN-7041 in dose-responsive fashion
cell viability [13]: unaffected by treatment
cell viability [14]: unaffected by treatment
cell viability [15]: little to no effect
cell viability [16]: dose-responsively impaired the viability
